Test results reported in US10934305B2, “SHMT inhibitors” (The Trustees of Princeton University, priority 2016, dated 2021).
pIC50: −log10 of the molar value.

Experiments:
[1] = target: human SHMT2 (Homo sapiens (Human), UniProt P34897); experiment: SHMT2 in vitro enzymatic assay (coupled with MTHFD2, NADH absorption at 340 nm); assay type: biochemical; conditions: SHMT2 IC50 (μM), Table 2
Procedure: Inhibition of human SHMT by compounds in this disclosure is evaluated, for example, in their racemic forms in an in vitro assay.
For the SHMT1 and SHMT2 in vitro enzymatic assays, the rate of 5,10-methylene tetrahydrofolate formation catalyzed by SHMT1/2 was indirectly evaluated by coupling with excess MTHFD2, which converts NAD+ to NADH allowing for reaction monitoring by absorption at 340 nm. […] Inhibition of initial reaction velocity was determined by adding various inhibitors at different concentrations and monitored as described. IC50 may be calculated based on this assay.

[2] = test system: Jurkat cells; experiment: Cellular growth assay, Jurkat T-cell leukemia line; assay type: cell-based, human; conditions: 5 μM inhibitor + 1 mM sodium formate
Procedure: (§1) Jurkat, REH, Farage, Daudi, Su-DHL2, Su-DHL-4, Su-DHL-6 cells were purchased from ATCC. Cells were subcultured in RPMI supplemented with 10% FBS. For growth assays, cells were seeded at 2×10^5/mL in 5 mL growth media in 12.5 cm flasks. Media was supplemented with sodium formate (1 mM), additional glycine (100 mg/L) and an SHMTi (5 uM). Cells were sampled daily, and counted using trypan blue staining and light microscopy.

[3] = test system: Su-DHL-2 cells; experiment: Cellular growth assay (cell count), Su-DHL-2 DLBCL line; assay type: cell-based, human; conditions: Su-DHL-2, 5 μM inhibitor + 1 mM formate
Procedure: as §1

[4] = test system: HCT116 cells; experiment: Formate rescue assay in cell growth assay; assay type: cell-based, human; conditions: for rescue of effects on cell growth by addition of formate: Table 5 cells
Procedure: Application of formate is shown to rescue the anti-growth effect in certain human cells treated with SHMT inhibitors in a cell growth assay.
(§2) The described cell lines for Examples 8 and 9 are cultured in 96-well plates in Dulbecco's modified eagle media (DMEM) without pyruvate (CELLGRO) with 10% dialysed fetal bovine serum (Invitrogen) in 5% CO2 at 37° C. Approximately 2,500 cells are plated in each well in 90 uL of media. After 24 hours cells are treated with various concentrations of inhibitor (time=0 hours), with or without formate. Growth was assessed at multiple time points (time=0, 24, 48, 72 hours) through measurement of fluorescence at 595 nm (excitation at 535 nm) on a BioTek micro titer plate reader after incubation with resazurin (0.01 mg/mL for 1.5 hours). IC50 curves are generated from percent inhibition of growth at 72 hours.

[5] = test system: Su-DHL4 cells; experiment: Cellular growth assay, Su-DHL4 DLBCL line; assay type: cell-based, human; conditions: SU-DHL4, RPMI, FIG. 12C
Procedure: as §1

[6] = test system: Su-DHL4 cells; experiment: Apoptosis by flow cytometry (Annexin V surface staining); assay type: cell-based, human
From the text: Apoptosis was enhanced by co-treatment with formate. In contrast, as expected, formate rescued Jurkat E6-1 leukemia cells from apoptosis (FIG. 11C). Without wishing to be bound by theory, it is hypothesized that the failure of formate to rescue growth in the DLBCL cell lines is due to a requirement for both glycine and 1C units made by SHMT in these cells. When glycine is limiting, formate can enhance the cytotoxicity of SHMT inhibition. […] Mechanistically, by supplying 5,10-methylene-THF, formate may drives residual SHMT enzymatic function in the […] direction.
In contrast, cell growth is further decreased in Su-DHL4 cells by addition of formate. This can be further exacerbated by removal of glycine from the media. […] Using flow cytometry, apoptosis of Su-DHL4 cells were studied with AnnexinV surface staining (FIGS. 12D and 12E).

[7] = test system: 8988T cells; experiment: Growth of pancreatic cancer cell line 8988T; assay type: cell-based, human; conditions: FIG. 9E
[8] = test system: HCT116 cells; experiment: Cell growth assay (resazurin), HCT116 wild-type; assay type: cell-based, human
Procedure: (§3) Inhibitors of SHMT were evaluated in various cancer cell lines, in the presence and absence of mutations in mitochondrial folate pathway enzymes.
as §2

[9] = test system: SHMT2 knock-out HCT116 cells; experiment: Cell growth assay, SHMT2 deletion (knock-out) HCT-116 cells; assay type: cell-based, human; conditions: FIG. 3B
Procedure: as §3, §2
Clonal deletion cell lines of SHMT1, SHMT2, and SHMT1/2 were generated from the human colorectal carcinoma cell line HCT-116. Paired Cas9 nickase (Cas9n) containing constructs that encoded single-guide RNA sequences targeting SHMT1 or 2 were transiently transfected into cells, and mutant colonies from single clones were picked as described in Ducker et al., (2016) Reversal of Cytosolic One-Carbon Flux Compensates for Loss of the Mitochondrial Folate Pathway, Cell Metab 23, 1140-1153. […]

Chain of human SHMT2 (P34897 30-504): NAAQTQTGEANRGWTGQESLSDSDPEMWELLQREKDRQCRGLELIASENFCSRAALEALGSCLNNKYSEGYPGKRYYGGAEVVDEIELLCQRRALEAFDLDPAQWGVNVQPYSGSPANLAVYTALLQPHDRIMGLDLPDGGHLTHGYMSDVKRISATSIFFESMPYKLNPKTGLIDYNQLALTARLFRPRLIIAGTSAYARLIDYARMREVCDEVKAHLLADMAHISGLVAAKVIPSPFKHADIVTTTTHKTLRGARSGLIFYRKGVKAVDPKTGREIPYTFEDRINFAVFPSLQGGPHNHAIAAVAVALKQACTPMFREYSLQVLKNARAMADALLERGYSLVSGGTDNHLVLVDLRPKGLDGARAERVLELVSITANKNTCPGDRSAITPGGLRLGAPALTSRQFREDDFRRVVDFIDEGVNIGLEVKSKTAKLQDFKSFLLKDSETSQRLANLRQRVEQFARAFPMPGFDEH

Cc1n[nH]c2c1C(c1cc(C#CCCC(=O)O)cc(C(F)(F)F)c1)(C(C)C)C(C#N)=C(N)O2 (racemic) [1 (enantiomeric mixture)]
IC50 [1]: 0.00065 µM

Cc1n[nH]c2c1[C@@](c1cc(C(F)(F)F)cc(C(F)(F)F)c1)(C(C)C)C(C#N)=C(N)O2 [HK-16 (PK-2)]
rescue of growth inhibition by formate [2]: significantly rescued
rescue of growth inhibition by formate [3]: not rescued

Cc1n[nH]c2c1C(c1cc(N3CCCC3)cc(C(F)(F)F)c1)(C(C)C)C(C#N)=C(N)O2 (stereo not drawn) [HK-X1]
rescue of effects on cell growth by addition of formate [4]: rescued

Cc1n[nH]c2c1C(c1cc(CO)cc(-c3ccccc3)c1)(C(C)C)C(C#N)=C(N)O2 (stereo not drawn) [HK-X2]
rescue of effects on cell growth by addition of formate [4]: rescued
IC70 [5]: 5000 nM
apoptotic fraction of cells ([6]; Su-DHL4, inhibitor alone (control 2%)): 8%
apoptotic fraction of cells ([6]; Su-DHL4, inhibitor in the presence of formate): 15%
apoptosis by Annexin V surface staining ([6]; Su-DHL-4): induced apoptosis
concentration impairing cell growth [7]: < 100 nM

Cc1n[nH]c2c1C(c1cc(C#CCCCO)cc(C(F)(F)F)c1)(C(C)C)C(C#N)=C(N)O2 (stereo not drawn) [Compound 61, 6-amino-4-(3-(5-hydroxypent-1-yn-1-yl)-5-(trifluoromethyl)phenyl)-4-isopropyl-3-methyl-1,4-dihydropyrano[2,3-c]pyrazole-5-carbonitrile]
growth (proliferation) of HCT116 cells ([8]; native HCT116, FIG. 3A): inhibited growth
growth of SHMT2 knock-out HCT116 cells versus native [9]: increased potency

Cc1n[nH]c2c1C(c1cc(C#CCCC(=O)O)cc(C(F)(F)F)c1)(C(C)C)C(C#N)=C(N)O2 (stereo not drawn) [1 (enatiomerically active peak)]
IC50 [1]: 0.00079 µM
pIC50 ([8]; Table 2, read-out: HCT Cell IC50): 5.87
% formate rescue ([4]; HCT cells, Table 2): 94.96%
